Experimental findings from US7365095B2, “Chromane and chromene derivatives and uses thereof” (Wyeth, priority 2005, dated 2008) are described below.

Assay [1] has as its target T1, human 5-hydroxytryptamine-2C (h5-HT2C) receptor (Homo sapiens, UniProt P28335).
T1 construct: expressed in transfected cells; host or cells: CHO (Chinese Hamster Ovary) cells; membrane preparation
T1 sequence (P28335 33-458): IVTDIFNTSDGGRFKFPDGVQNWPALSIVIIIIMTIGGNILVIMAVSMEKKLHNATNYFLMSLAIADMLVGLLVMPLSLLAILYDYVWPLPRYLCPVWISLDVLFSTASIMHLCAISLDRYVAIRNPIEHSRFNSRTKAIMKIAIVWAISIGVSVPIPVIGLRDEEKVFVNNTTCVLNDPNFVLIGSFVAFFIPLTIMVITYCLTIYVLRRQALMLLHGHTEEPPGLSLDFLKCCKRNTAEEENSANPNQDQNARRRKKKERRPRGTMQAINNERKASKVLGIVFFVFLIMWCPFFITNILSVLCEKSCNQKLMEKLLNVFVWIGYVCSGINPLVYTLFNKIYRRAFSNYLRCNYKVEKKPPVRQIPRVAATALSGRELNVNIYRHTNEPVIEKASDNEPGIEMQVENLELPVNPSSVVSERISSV
The assay can be described thus: [125I]DOI binding to membranes of CHO cells expressing h5-HT2C receptor. As to conditions: read-out: 5-HT2C Binding Ki avg.

Assay [2] has as its target T2, human 5-HT2C receptor (Homo sapiens, UniProt P28335).
T2 sequence (P28335 33-458): T1 sequence (P28335 33-458)
The assay can be described thus: calcium mobilization (FLIPR) in CHO cells stably expressing the human 5-HT2C receptor. It is filed as cell-based. As to conditions: for Emax: CHO, read-out: 5-HT2C Function EMax (%); for EC50: calcium mobilization, read-out: 5-HT2C Function EC50. A general note: A change in cytosolic calcium serves as a functional read-out for many receptors and channels.

Structures can show the parent of a compound that is named as a salt. Some results are limits rather than exact numbers.

The term Ki denotes a dissociation constant, usually derived from enzyme kinetics or from competition with a known ligand. Broadly, the Emax is the greatest response seen or fitted, relative to the assay's reference. In general, EC50 refers to the concentration needed to bring the measured effect to its halfway point. On to `CNC[C@@H]1CCc2cccc(-c3ccc(OC)cc3OC)c2O1` [Compound 24, {[(2S)-8-(2,4-dimethoxyphenyl)-3,4-dihydro-2H-chromen-2-yl]methyl}methylamine hydrochloride], for which the Ki in assay [1] lay in the range of 10 to 50 nM. Moreover, in assay [2], the Emax was 100% and the half-maximal effective concentration (EC50) fell in the range of 50 to 200 nM.
For `CNC[C@@H]1CCc2cccc(-c3ccc(Cl)cc3Cl)c2O1` [Compound 21, {[(2S)-8-(2,4-dichlorophenyl)-3,4-dihydro-2H-chromen-2-yl]methyl}methylamine hydrochloride], the Ki in assay [1] was greater than 50 nM. Further, in assay [2], the Emax was determined as 80% and the EC50 is 50 to 200 nM.
Consider `NC[C@@H]1CCc2cccc(-c3ccccc3Cl)c2O1` [Compound 27, {[(2S)-8-(2-chlorophenyl)-3,4-dihydro-2H-chromen-2-yl]methyl}amine hydrochloride], for which the Ki in assay [1] lay in the range of 10 to 50 nM. Further, in assay [2], the Emax turned out to be 80% and the EC50 is 50 to 200 nM.
The corresponding values for `NC[C@H]1C=Cc2cc(F)cc(-c3ccccc3Cl)c2O1` [Compound 64, {[(2R)-8-(2-chlorophenyl)-6-fluoro-2H-chromen-2-yl]methyl}amine hydrochloride] are no more than 10 nM, 90% and less than 50 nM.
`NC[C@H]1C=Cc2cccc(-c3c(Cl)cccc3Cl)c2O1` [Compound 60, {[(2R)-8-(2,6-dichlorophenyl)-2H-chromen-2-yl]methyl}amine hydrochloride]: in assay [1], the Ki is no more than 10 nM. Also, in assay [2], the Emax was 100% and the EC50 was less than 50 nM.
On to `NC[C@@H]1CCc2cc(F)cc(-c3ccccc3Cl)c2O1` [Compound 51, {[(2S)-8-(2-chlorophenyl)-6-fluoro-3,4-dihydro-2H-chromen-2-yl]methyl}amine hydrochloride], for which the Ki in assay [1] fell in the range of 10 to 50 nM. Further, in assay [2], the Emax was 80% and the EC50 was less than 50 nM.
For the molecule `COc1ccccc1-c1cc(F)cc2c1O[C@@H](CN)CC2` [Compound 38, 1-[(2R)-6-fluoro-8-(2-methoxyphenyl)-3,4-dihydro-2H-chromen-2-yl]methanamine hydrochloride], the Ki in assay [1] was no more than 10 nM. Further, in assay [2], the Emax turned out to be 80% and the EC50 was less than 50 nM.
In the case of `CNC[C@H]1CCc2cccc(-c3cc(Cl)ccc3Cl)c2O1` [Compound 3, {[(2R)-8-(2,5-dichlorophenyl)-3,4-dihydro-2H-chromen-2-yl]methyl}methylamine hydrochloride], the Ki in assay [1] is no more than 10 nM. Moreover, in assay [2], the maximum response (Emax) came out at 90% and the EC50 was less than 50 nM.
In the case of `CNC[C@@H]1CCc2cccc(-c3cc(Cl)ccc3Cl)c2O1` [Compound 20, {[(2S)-8-(2,5-dichlorophenyl)-3,4-dihydro-2H-chromen-2-yl]methyl}methylamine hydrochloride], the Ki in assay [1] was no more than 10 nM. In addition, in assay [2], the Emax came out at 90% and the 50% effective concentration (EC50) was less than 50 nM.
On to `NC[C@H]1CCCc2cccc(-c3c(Cl)cccc3Cl)c2O1` [Compound 67, {[(2R)-9-(2,6-dichlorophenyl)-2,3,4,5-tetrahydro-1-benzoxepin-2-yl]methyl}amine hydrochloride], for which, in assay [1], the Ki was in the range of 10 to 50 nM. Besides, in assay [2], the Emax amounted to 80% and the EC50 lay within 50 to 200 nM.
The corresponding values for `CNC[C@H]1CCc2cccc(-c3ccccc3Cl)c2O1` [Compound 10, N-{[(2R)-8-(2-chlorophenyl)-3,4-dihydro-2H-chromen-2-yl]methyl}-N-methylamine hydrochloride] are no more than 10 nM, 100% and less than 50 nM.
For `NCC1CCc2cccc(-c3ccccc3Cl)c2O1` (stereo not drawn) [Compound 2, {[8-(2-chlorophenyl)-3,4-dihydro-2H-chromen-2-yl]methyl}amine trifluoroacetate], the Ki in assay [1] is no more than 10 nM. In assay [2], the Emax was 80% and the EC50 was less than 50 nM.
Take `NC[C@@H]1CCc2cc(F)cc(-c3cc(Cl)ccc3Cl)c2O1` [Compound 55, {[(2S)-8-(2,5-dichlorophenyl)-6-fluoro-3,4-dihydro-2H-chromen-2-yl]methyl}amine hydrochloride]: the Ki in assay [1] was no more than 10 nM. Moreover, in assay [2], the Emax was found to be 70% and the EC50 was 50 to 200 nM.
Take `CNC[C@H]1CCc2cccc(-c3ccc(OC)cc3OC)c2O1` [Compound 7, N-{[(2R)-8-(2,4-dimethoxyphenyl)-3,4-dihydro-2H-chromen-2-yl]methyl}-N-methylamine hydrochloride]: in assay [1], the Ki is no more than 10 nM. Further, in assay [2], the Emax came out at 90% and the EC50 is less than 50 nM.
Consider `CNC[C@@H]1CCc2cccc(-c3ccccc3Cl)c2O1` [Compound 19, {[(2S)-8-(2-chlorophenyl)-3,4-dihydro-2H-chromen-2-yl]methyl}methylamine hydrochloride], for which the Ki in assay [1] is no more than 10 nM. Further, in assay [2], the Emax was found to be 80% and the half-maximal effective concentration (EC50) is 50 to 200 nM.
Turning to `NC[C@H]1CCc2cccc(-c3cc(Cl)ccc3Cl)c2O1` [Compound 12, {[(2R)-8-(2,5-dichlorophenyl)-3,4-dihydro-2H-chromen-2-yl]methyl}amine hydrochloride], in assay [1], the Ki is 10 to 50 nM. In addition, in assay [2], the Emax came out at 90% and the EC50 was in the range of 50 to 200 nM.
On to `CNC[C@H]1CCc2cccc(-c3c(Cl)cccc3Cl)c2O1` [Compound 35, {[(2R)-8-(2,6-dichlorophenyl)-3,4-dihydro-2H-chromen-2-yl]methyl}methylamine hydrochloride], for which the Ki in assay [1] was no more than 10 nM. For the same molecule, in assay [2], the Emax was found to be 90% and the EC50 was less than 50 nM.
As to `COc1ccc(-c2cccc3c2O[C@@H](CN)CC3)c(OC)c1` [Compound 16, {[(2R)-8-(2,4-dimethoxyphenyl)-3,4-dihydro-2H-chromen-2-yl]methyl}amine hydrochloride], in assay [1], the Ki was no more than 10 nM. Also, in assay [2], the Emax was 100% and the EC50 was less than 50 nM.
As for `Cc1ccccc1-c1cccc2c1O[C@@H](CN)CC2` [Compound 17, {[(2R)-8-(2-methylphenyl)-3,4-dihydro-2H-chromen-2-yl]methyl}amine hydrochloride], in assay [1], the Ki is no more than 10 nM. In assay [2], the Emax was 80% and the EC50 was less than 50 nM.
Consider `NC[C@H]1CCc2cc(F)cc(-c3ccccc3)c2O1` [Compound 48, {[(2R)-6-fluoro-8-phenyl-3,4-dihydro-2H-chromen-2-yl]methyl}amine hydrochloride], for which, in assay [1], the Ki is no more than 10 nM. Moreover, in assay [2], the Emax amounted to 90% and the EC50 lay within 50 to 200 nM.
`NC[C@H]1C=Cc2cc(F)cc(-c3cc(Cl)ccc3Cl)c2O1` [Compound 63, {[(2R)-8-(2,5-dichlorophenyl)-6-fluoro-2H-chromen-2-yl]methyl}amine hydrochloride]: the Ki in assay [1] was no more than 10 nM. Besides, in assay [2], the Emax is 90% and the EC50 is less than 50 nM.
Turning to `CNC[C@H]1CCc2cccc(-c3ccccc3OC)c2O1` [Compound 6, N-{[(2R)-8-(2-methoxyphenyl)-3,4-dihydro-2H-chromen-2-yl]methyl}-N-methylamine hydrochloride], in assay [1], the Ki is no more than 10 nM. Further, in assay [2], the Emax amounted to 90% and the EC50 is less than 50 nM.
With `Cc1ccccc1-c1cc(F)cc2c1O[C@@H](CN)CC2` [Compound 49, {[(2R)-6-fluoro-8-(2-methylphenyl)-3,4-dihydro-2H-chromen-2-yl]methyl}amine hydrochloride], in assay [1], the Ki is no more than 10 nM. In assay [2], the Emax came out at 90% and the EC50 was less than 50 nM.
The corresponding values for `CNC[C@H]1CCc2cccc(-c3cccnc3)c2O1` [Compound 9, N-methyl-N-{[(2R)-8-pyridin-3-yl-3,4-dihydro-2H-chromen-2-yl]methyl}amine hydrochloride] are no more than 10 nM, 100% and less than 50 nM.
The corresponding values for `NC[C@H]1CCc2cccc(-c3ccc(Cl)cc3Cl)c2O1` [Compound 13, {[(2R)-8-(2,4-dichlorophenyl)-3,4-dihydro-2H-chromen-2-yl]methyl}amine hydrochloride] are no more than 10 nM, 100% and less than 50 nM.
For `CNC[C@H]1CCc2cc(F)cc(-c3cc(Cl)ccc3Cl)c2O1` [Compound 40, {[(2R)-8-(2,5-dichlorophenyl)-6-fluoro-3,4-dihydro-2H-chromen-2-yl]methyl}methylamine hydrochloride], the Ki in assay [1] is no more than 10 nM. Also, in assay [2], the Emax is 90% and the EC50 is less than 50 nM.
Turning to `NC[C@H]1CCc2cccc(-c3ccccc3)c2O1` [Compound 14, {[(2R)-8-phenyl-3,4-dihydro-2H-chromen-2-yl]methyl}amine hydrochloride], in assay [1], the Ki lay in the range of 10 to 50 nM. In addition, in assay [2], the Emax was 80% and the EC50 was greater than 200 nM.
Take `CNCC1CCc2cccc(-c3ccccc3Cl)c2O1` (stereo not drawn) [Compound 1, N-{[8-(2-chlorophenyl)-3,4-dihydro-2H-chromen-2-yl]methyl}-N-methylamine hydrochloride]: the Ki in assay [1] was 10 to 50 nM. In assay [2], the Emax amounted to 80% and the EC50 was less than 50 nM.
Regarding `CNC[C@H]1CCc2cc(F)cc(-c3ccccc3)c2O1` [Compound 42, {[(2R)-6-fluoro-8-phenyl-3,4-dihydro-2H-chromen-2-yl]methyl}methylamine hydrochloride], in assay [1], the Ki is no more than 10 nM. In assay [2], the Emax came out at 90% and the EC50 was in the range of 50 to 200 nM.
